Drawing on the OligoGym collection, this text covers target mRNA inhibition for 55 sequences.

The data set addresses DGAT2. As to conditions: ASO.

Several values for one entry are separate records, joined by “and”; a condition that tells them apart may be missing. Identical values can stand only once. After the bases stand the sugars from the 5' end (letter, count) and the backbone: PS all phosphorothioate, else s phosphorothioate and o phosphodiester by linkage. Methylation of C is not given here. e = 2'-O-(2-methoxyethyl) (MOE); d = 2'-deoxy (DNA)

For “GGTGAATAGCTATGTCTAAA (sugars e5 d10 e5, PS)”, the target mRNA inhibition is 70% and 55% (HepG2, 2.5 µM); 91% and 85% (HepG2, 10 µM).

In the case of “GGTGCTCTCATTTCTTATCT (sugars e5 d10 e5, PS)”, the target mRNA inhibition is 56% and 59% (HepG2, 2.5 µM); 82% and 92% (HepG2, 10 µM).

For the setting “HepG2, 0.12 µM”, “GGTGGGAAACTTGGAAACTT (sugars e5 d10 e5, PS)” had a target mRNA inhibition of 37%.

On to “GGTGGTCAGCAGGTTGTGTG (sugars e5 d10 e5, PS)”, for which, where the note is “HepG2, 0.12 µM”, the target mRNA inhibition is 29%.

As for “GGTTATTGCAACCACTAGGA (sugars e5 d10 e5, PS)”, the target mRNA inhibition by setting is: (HepG2, 2.5 µM) 80%; (HepG2, 10 µM) 91%.

For “GTAAGCCTCGGTGTCCT (sugars e3 d10 e4, PS)”, the target mRNA inhibition (HepG2, 2.5 µM) was 62% and the target mRNA inhibition (HepG2, 10 µM) is 79%.

With “GTAAGGGTATTCTGCTCATA (sugars e5 d10 e5, PS)”, for the setting “HepG2, 10 µM”, the target mRNA inhibition was 86% and 95%.

For the sequence “GTACAAGTTTCTCCACCTAT (sugars e5 d10 e5, PS)”, the target mRNA inhibition is 68% and 88% (HepG2, 2.5 µM); 79% and 87% (HepG2, 10 µM).

In turn, “GTAGACTCTCCATGAGCCTA (sugars e5 d10 e5, PS)” had a target mRNA inhibition (HepG2, 2.5 µM) of 49% and a target mRNA inhibition (HepG2, 10 µM) of 88%.

On to “GTATCCAAAGATATAGTTCC (sugars e5 d10 e5, PS)”, for which the target mRNA inhibition (HepG2, 0.12 µM) amounted to 8%.

“GTCACTGACTCACAACAGCA (sugars e5 d10 e5, PS)”: the target mRNA inhibition (HepG2, 2.5 µM) was 58% and the target mRNA inhibition (HepG2, 10 µM) stood at 92%.

For the setting “HepG2, 0.12 µM”, “GTCAGCAGGTTGTGTGTCTT (sugars e2 d13 e5, PS)” displayed a target mRNA inhibition of 58%.

For “GTCAGCAGGTTGTGTGTCTT (sugars e3 d14 e3, PS)”, the target mRNA inhibition (HepG2, 0.12 µM) was 61%.

“GTCCTCCTTAGCTTTAATCC (sugars e5 d10 e5, PS)”: the target mRNA inhibition runs as follows: (HepG2, 2.5 µM) 62%; (HepG2, 10 µM) 85%.

Turning to “GTCTCTCATAATTGCCAGTT (sugars e5 d10 e5, PS)”, the target mRNA inhibition is, setting by setting: (HepG2, 2.5 µM) 53% and 66%; (HepG2, 10 µM) 83% and 87%.

Regarding “GTCTTCACCAGCTGGATGGG (sugars e5 d10 e5, PS)”, the target mRNA inhibition (HepG2, 0.12 µM) is 42%.

In the case of “GTGCAAGAGTTACCTCCTCC (sugars e5 d10 e5, PS)”, the target mRNA inhibition (HepG2, 2.5 µM) is 80% and 78%; the target mRNA inhibition (HepG2, 10 µM) was 94% and 92%.

“GTGCAGAATATGTACATGAG (sugars e5 d10 e5, PS)” yielded a target mRNA inhibition (HepG2, 0.12 µM) of 43%.

In turn, “GTGGTCAGCAGGTTGTGTGT (sugars e5 d10 e5, PS)” displayed a target mRNA inhibition (HepG2, 0.12 µM) of 44% and a target mRNA inhibition (HepG2, 2.5 µM) of 0%.

Regarding “GTGTCGGAGGAGAAGAGGCC (sugars e5 d10 e5, PS)”, the target mRNA inhibition (HepG2, 0.12 µM) was found to be 52%.

As to “GTGTCTTCACCAGCTGGATG (sugars e5 d10 e5, PS)”, the target mRNA inhibition by setting is: (HepG2, 0.12 µM) 49%; (HepG2, 2.5 µM) 16%.

Sequence “GTTCTTCCAACCAGTGTTTG (sugars e5 d10 e5, PS)” gave a target mRNA inhibition (HepG2, 2.5 µM) of 47% and a target mRNA inhibition (HepG2, 10 µM) of 81%.

“GTTGCCATCATACTAGACTA (sugars e5 d10 e5, PS)” showed a target mRNA inhibition (HepG2, 2.5 µM) of 65% and a target mRNA inhibition (HepG2, 10 µM) of 85%.

For the sequence “TAACCACAGCGATAATCACA (sugars e5 d10 e5, PS)”, the target mRNA inhibition runs as follows: (HepG2, 2.5 µM) 60%; (HepG2, 10 µM) 93%.

With “TAAGGAAAACTTAGGCATGC (sugars e5 d10 e5, PS)”, the target mRNA inhibition (HepG2, 2.5 µM) is 75% and the target mRNA inhibition (HepG2, 10 µM) came to 69%.

Turning to “TAAGGGTATTCTGCTCATAA (sugars e5 d10 e5, PS)”, the target mRNA inhibition reads like this: (HepG2, 2.5 µM) 63%; (HepG2, 10 µM) 93%.

“TACCTGCTATGCTGAGAGCA (sugars e5 d10 e5, PS)”: the target mRNA inhibition reads like this: (HepG2, 2.5 µM) 65%; (HepG2, 10 µM) 80%.

With “TACCTTATCTTTGTCCACAT (sugars e5 d10 e5, PS)”, for the setting “HepG2, 10 µM”, the target mRNA inhibition is 78% and 91%.

In the case of “TAGAGGTTTACTGCATAGCT (sugars e5 d10 e5, PS)”, the target mRNA inhibition is, setting by setting: (HepG2, 2.5 µM) 84% and 72%; (HepG2, 10 µM) 85% and 92%.

“TAGCATTGCCACTCCCATTC (sugars e2 d13 e5, PS)”: the target mRNA inhibition (HepG2, 0.12 µM) turned out to be 60%.

“TAGCCAGGTAAGGCCGTATG (sugars e2 d13 e5, PS)”: the target mRNA inhibition (HepG2, 0.12 µM) was 51%.

In the case of “TAGGATGCTTAACTTCTGCT (sugars e5 d10 e5, PS)”, the target mRNA inhibition is 58% (HepG2, 2.5 µM) and 85% (HepG2, 10 µM).

Take “TATTTGAAGATAAAGTCAGA (sugars e5 d10 e5, PS)”: for the setting “HepG2, 0.12 µM”, the target mRNA inhibition came out at 0%.

For the sequence “TCACATGCCTGAGGGCAGCA (sugars e5 d10 e5, PS)”, the target mRNA inhibition came to 66% (HepG2, 2.5 µM) and 86% (HepG2, 10 µM).

“TCACCAGGGCCTCCATGTAC (sugars e2 d13 e5, PS)” yielded a target mRNA inhibition (HepG2, 0.12 µM) of 3%.

Sequence “TCACCTGCTTGTACACTTCA (sugars e5 d10 e5, PS)” came in with a target mRNA inhibition (HepG2, 0.12 µM) of 40%.

For the setting “HepG2, 0.12 µM”, “TCAGAGACTCAGCCGCACCC (sugars e2 d13 e5, PS)” displayed a target mRNA inhibition of 56%.

Where the note is “HepG2, 0.12 µM”, “TCAGAGACTCAGCCGCACCC (sugars e3 d14 e3, PS)” displayed a target mRNA inhibition of 41%.

For “TCAGCAGGTTGTGTGTCTTC (sugars e3 d14 e3, PS)”, where the note is “HepG2, 0.12 µM”, the target mRNA inhibition came to 54%.

As to “TCAGCCTAGAGGCCCTGGAC (sugars e5 d10 e5, PS)”, the target mRNA inhibition (HepG2, 0.12 µM) was found to be 26%.

With “TCCAATGCACCTTGTATTAA (sugars e5 d10 e5, PS)”, the target mRNA inhibition was 72% and 52% (HepG2, 2.5 µM); 92% and 83% (HepG2, 10 µM).

“TCCACCTAGCTCATGGTGGC (sugars e5 d10 e5, PS)” came in with a target mRNA inhibition (HepG2, 0.12 µM) of 21%.

“TCCCATTCTTTGAAAGCAAA (sugars e5 d10 e5, PS)” displayed a target mRNA inhibition (HepG2, 0.12 µM) of 31%.

For the sequence “TCCTGGTCCCAGTACTTTCT (sugars e5 d10 e5, PS)”, the target mRNA inhibition by setting is: (HepG2, 2.5 µM) 71% and 73%; (HepG2, 10 µM) 91% and 92%.

On to “TCTCATGCTAGGTCCTGTGC (sugars e5 d10 e5, PS)”, for which the target mRNA inhibition is 89% and 74% (HepG2, 2.5 µM); 90% and 88% (HepG2, 10 µM).

As for “TCTCCTCTGCTTCTTGGGCA (sugars e5 d10 e5, PS)”, the target mRNA inhibition by setting is: (HepG2, 2.5 µM) 69% and 67%; (HepG2, 10 µM) 85% and 82%.

With “TCTCGAATATCCCTAATAAC (sugars e5 d10 e5, PS)”, the target mRNA inhibition by setting is: (HepG2, 2.5 µM) 34%; (HepG2, 10 µM) 87%.

With “TCTGGAACTTCTTCTGGACC (sugars e5 d10 e5, PS)”, the target mRNA inhibition (HepG2, 0.12 µM) was 43%.

The sequence “TCTTCACCAGCTGGATGGGA (sugars e5 d10 e5, PS)” yielded a target mRNA inhibition (HepG2, 0.12 µM) of 50%.

For the sequence “TCTTGCCAGGCATGGAGCTC (sugars e5 d10 e5, PS)”, the target mRNA inhibition (HepG2, 0.12 µM) came out at 47%.

As for “TCTTTGCTTGCCAGGTGAGC (sugars e5 d10 e5, PS)”, the target mRNA inhibition was determined as 67% (HepG2, 2.5 µM) and 71% (HepG2, 10 µM).

Regarding “TGACCAGGAAGGCCACACCT (sugars e5 d10 e5, PS)”, where the note is “HepG2, 0.12 µM”, the target mRNA inhibition amounted to 15%.

Turning to “TGACTGCATTCTTGCCAGGC (sugars e5 d10 e5, PS)”, the target mRNA inhibition was 16% (HepG2, 2.5 µM) and 69% (HepG2, 10 µM).

As to “TGAGGCCAAGGACAGAGGTT (sugars e5 d10 e5, PS)”, the target mRNA inhibition (HepG2, 2.5 µM) turned out to be 59% and the target mRNA inhibition (HepG2, 10 µM) was found to be 85%.

As for “TGATAGCATTGCCACTCCCA (sugars e3 d14 e3, PS)”, the target mRNA inhibition (HepG2, 0.12 µM) was found to be 66%.
